According to patent US20230263886A1, “VACCINES, VACCINE PRIMING, AND ANTIGEN DOSE SPARING” (priority 2020, published 2023):

Columns and labels:
H3N2 [1] = assay: H3N2-specific IgG by ELISA, dose-sparing study in mice (Example 4); settings: FIG. 26
Description: Sera were analyzed at days 0, 21 and 42 by ELISA for H3N2-specific IgG.

H3N2 [2] = settings: including a recombinant influenza antigen
Description: Sera were analyzed at days 0, 14, and 28 by ELISA for H3N2-specific IgG titers and HI (hemagglutination inhibition) titers, H1N1-specific IgG titers and HI titers, and B/Phuket-specific IgG titers and HI titers. All mice were previously naïve to human influenza.

[3] = assay type: in vivo, C57BL/6J mice
Description: Body weights were measured serially.

Row | Compound | antigen dose-sparing effects, murine antibody response to FLUBLOK (H3N2 [1]) | dose sparing for vaccine antigens (H3N2 [2]) | body weight after immunization ([3]; mice receiving TQL-1055) | maximum weight loss ([3]; mice receiving 20 mcg of QS-21)
1 | CC1O[C@@H](OC2C(O)[C@@H](NC(=O)CCCCCCCCCCC(=O)O)C(CO)O[C@H]2OC(=O)[C@]23CCC(C)(C)CC2C2=CCC4C5(C)CC[C@H](O)C(C)(C=O)C5CCC4(C)C2(C)CC3O)C(O)C(O)[C@H]1O[C@@H]1OC[C@@H](O)C(O)C1O (stereo partly shown) [TQL-1055] | superior antigen dose-sparing effects | at least 32 × | gained weight steadily | –
2 | QS-21 [reference compound] | – | – | – | > 10%
